One may read the IC50 as the midpoint of a concentration-inhibition curve.

This is an account of results in patent US11174268B2, “Benzenesulfonamide compouds and their use as therapeutic agents” (Xenon Pharmaceuticals Inc., priority 2016, dated 2021).

Structures can show the parent of a compound that is named as a salt. Where two headings read alike, the source gives them in different places.

Data set [1] has as its target NaV1.6 (Homo sapiens (Human), UniProt Q9UQD0). Nature of the data set: Sodium Influx Assay (Flux), NaV1.6.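 Note: Tetracycline-induced cells, compounds applied for one hour at room temperature with modulators holding channels open, IC50 from percent inhibition of sodium influx.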 Type of data set: cell-based. The conditions noted are these: Trex HEK293 cells, ANG2 dye, inactivated state.
Data set [2] deals with NaV1.1 (Homo sapiens (Human), UniProt P35498). The data set is described as follows: Sodium Influx Assay (Flux), NaV1.1.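 Note: channels co-expressed with human β1 subunit and held open by modulators, cells exposed to compounds for one hour at room temperature, IC50 from percent inhibition of influx.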 Type of data set: cell-based. The note with it: Trex HEK293 cells, ANG2 dye, inactivated state.
The target of data set [3] is NaV1.5 (Homo sapiens (Human), UniProt Q14524). Nature of the data set: Sodium Influx Assay (Flux), NaV1.5.
Where [4] appears, read: read-out: Flux NaV1.5 IC50, Trex HEK293 cells, ANG2 dye, inactivated state.

Sequence of NaV1.5 (Q14524 other isoform, or with tags, fused parts or gaps): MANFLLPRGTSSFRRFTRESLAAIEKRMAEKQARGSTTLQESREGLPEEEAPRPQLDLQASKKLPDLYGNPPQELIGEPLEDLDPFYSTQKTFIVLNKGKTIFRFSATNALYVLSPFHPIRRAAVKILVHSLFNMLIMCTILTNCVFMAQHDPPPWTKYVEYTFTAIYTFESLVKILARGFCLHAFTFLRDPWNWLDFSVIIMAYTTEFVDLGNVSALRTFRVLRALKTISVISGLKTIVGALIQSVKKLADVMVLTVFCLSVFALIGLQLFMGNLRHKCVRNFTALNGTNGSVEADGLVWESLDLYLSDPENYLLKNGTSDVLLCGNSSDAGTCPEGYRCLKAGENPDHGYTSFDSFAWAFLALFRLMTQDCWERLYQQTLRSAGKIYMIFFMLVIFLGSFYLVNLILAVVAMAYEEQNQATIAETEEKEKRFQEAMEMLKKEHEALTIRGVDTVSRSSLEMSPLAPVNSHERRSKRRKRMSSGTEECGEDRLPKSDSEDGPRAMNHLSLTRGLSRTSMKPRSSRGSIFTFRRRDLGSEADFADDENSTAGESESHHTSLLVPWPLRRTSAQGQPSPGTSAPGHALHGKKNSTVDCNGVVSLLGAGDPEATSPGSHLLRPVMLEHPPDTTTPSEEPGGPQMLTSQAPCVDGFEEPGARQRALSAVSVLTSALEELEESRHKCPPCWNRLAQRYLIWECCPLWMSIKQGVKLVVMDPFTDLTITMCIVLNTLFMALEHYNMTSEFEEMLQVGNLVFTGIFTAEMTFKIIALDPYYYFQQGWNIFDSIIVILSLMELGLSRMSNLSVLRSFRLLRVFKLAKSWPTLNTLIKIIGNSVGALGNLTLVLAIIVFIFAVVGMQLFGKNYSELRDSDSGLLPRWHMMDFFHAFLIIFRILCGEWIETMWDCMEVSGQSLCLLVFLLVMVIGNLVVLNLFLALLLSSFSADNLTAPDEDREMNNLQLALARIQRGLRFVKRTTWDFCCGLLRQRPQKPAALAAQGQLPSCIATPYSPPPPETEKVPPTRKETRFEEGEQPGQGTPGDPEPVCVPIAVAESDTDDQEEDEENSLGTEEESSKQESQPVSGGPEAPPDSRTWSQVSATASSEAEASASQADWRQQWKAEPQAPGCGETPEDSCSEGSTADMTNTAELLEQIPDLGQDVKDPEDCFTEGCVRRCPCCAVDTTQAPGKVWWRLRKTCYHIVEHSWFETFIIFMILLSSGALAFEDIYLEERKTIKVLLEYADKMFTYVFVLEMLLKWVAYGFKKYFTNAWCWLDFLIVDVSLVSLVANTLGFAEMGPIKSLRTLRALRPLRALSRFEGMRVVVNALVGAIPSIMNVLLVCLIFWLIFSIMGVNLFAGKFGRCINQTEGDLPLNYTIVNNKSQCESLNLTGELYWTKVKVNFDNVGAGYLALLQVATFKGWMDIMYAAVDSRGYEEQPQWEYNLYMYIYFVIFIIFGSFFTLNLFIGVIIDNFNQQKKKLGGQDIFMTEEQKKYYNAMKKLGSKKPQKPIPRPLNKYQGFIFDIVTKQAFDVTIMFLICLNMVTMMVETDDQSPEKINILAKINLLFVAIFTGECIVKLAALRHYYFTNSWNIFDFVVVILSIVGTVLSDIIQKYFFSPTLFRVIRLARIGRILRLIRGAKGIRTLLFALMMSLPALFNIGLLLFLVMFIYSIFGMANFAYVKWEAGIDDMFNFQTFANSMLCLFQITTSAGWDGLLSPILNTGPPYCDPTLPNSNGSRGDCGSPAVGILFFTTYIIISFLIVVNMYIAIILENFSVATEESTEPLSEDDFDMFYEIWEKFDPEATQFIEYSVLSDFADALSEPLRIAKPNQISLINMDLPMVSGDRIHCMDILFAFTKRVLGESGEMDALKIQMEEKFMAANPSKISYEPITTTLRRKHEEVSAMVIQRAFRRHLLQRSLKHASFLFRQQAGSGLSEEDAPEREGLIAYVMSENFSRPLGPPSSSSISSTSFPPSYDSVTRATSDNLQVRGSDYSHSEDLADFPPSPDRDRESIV

In the case of “2,6-difluoro-4-((2-fluoro-6-((3-hydroxy-3-methylazetidin-1-yl)methyl)benzyl)amino)-N-(thiazol-4-yl)benzenesulfonamide formate [Example 169]”, the IC50 in data set [1] stood at 0.011 µM; in data set [2] it was 6.38 µM; in data set [3] (setting [4]), 29 µM.

“4-((2-((3-(difluoromethyl)azetidin-1-yl)methyl)-6-fluorobenzyl)amino)-2,6-difluoro-N-(thiazol-4-yl)benzenesulfonamide formate [Example 168]”: the concentration for half-maximal inhibition (IC50) in data set [1] was found to be 0.12 µM; in data set [2], 17.7 µM; in data set [3] (setting [4]) it was 21.7 µM.

Turning to `C[C@@H](Oc1ccc(S(=O)(=O)Nc2ncns2)cc1Cl)c1ccccc1` (racemic) [Example 87, (R) and (S)-3-chloro-4-(1-phenylethoxy)-N-(1,2,4-thiadiazol-5-yl)benzenesulfonamide], the IC50 in data set [1] is 8.6 µM; in data set [2], not below 30 µM; in data set [3] it was 24.7 µM.

On to `CC[C@H](Nc1cc(F)c(S(=O)(=O)Nc2nccs2)cc1Br)c1ccccc1` [Example 1, (S)-5-bromo-2-fluoro-4-((1-phenylpropyl)amino)-N-(thiazol-2-yl)benzenesulfonamide], for which the results for the IC50 in data set [1], in data set [2] and in data set [3] (setting [4]) were 0.12 µM, 0.784 µM and 8.92 µM, respectively.

On to `C[C@H](Nc1cc(F)c(S(=O)(=O)Nc2nccs2)cc1Cl)c1cccc2ccccc12` [Example 2, (S)-5-chloro-2-fluoro-4-((1-(naphthalen-1-yl)ethyl)amino)-N-(thiazol-2-yl)benzenesulfonamide], for which the IC50 in data set [1] stood at 5.02 µM; in data set [2], 16 µM; in data set [3] (setting [4]), 8.25 µM.

For `C[C@H](Nc1cc(F)c(S(=O)(=O)Nc2nccs2)cc1Cl)c1cccc(C(F)(F)F)c1` [Example 3, (S)-5-chloro-2-fluoro-N-(thiazol-2-yl)-4-((1-(3-(trifluoromethyl)phenyl)ethyl)amino)benzenesulfonamide], the IC50 turned out to be 0.679 µM in data set [1], 3.38 µM in data set [2] and 5.25 µM in data set [3] (setting [4]).

Regarding `C[C@H](Nc1cc(F)c(S(=O)(=O)Nc2cscn2)cc1Cl)c1cccc(Cl)c1F` [Example 6, (S)-5-chloro-4-((1-(3-chloro-2-fluorophenyl)ethyl)amino)-2-fluoro-N-(thiazol-4-yl)benzenesulfonamide], the concentration for half-maximal inhibition (IC50) in data set [1] turned out to be 3.38 µM; in data set [2], 3.76 µM; in data set [3] (setting [4]), 5.52 µM.

For `C[C@H](Nc1cc(F)c(S(=O)(=O)Nc2nccs2)cc1Cl)c1cccc(Br)c1` [Example 7, (S)-4-((1-(3-bromophenyl)ethyl)amino)-5-chloro-2-fluoro-N-(thiazol-2-yl)benzenesulfonamide], the 50% inhibitory concentration (IC50) in data set [1] stood at 0.376 µM; in data set [2], 3 µM; in data set [3] (setting [4]), 9.68 µM.

`C[C@H](Nc1cc(F)c(S(=O)(=O)Nc2nccs2)cc1Cl)c1ccc(Cl)cc1` [Example 14, (S)-5-chloro-4-((1-(4-chlorophenyl)ethyl)amino)-2-fluoro-N-(thiazol-2-yl)benzenesulfonamide]: the figures for the IC50 in data set [1], in data set [2] and in data set [3] (setting [4]) were 1.79 µM, 4.65 µM and 14.4 µM, respectively.

On to `C[C@H](Nc1cc(F)c(S(=O)(=O)Nc2nccs2)cc1Cl)c1ccc2ccccc2c1` [Example 15, (S)-5-chloro-2-fluoro-4-((1-(naphthalen-2-yl)ethyl)amino)-N-(thiazol-2-yl)benzenesulfonamide], for which the values for the concentration for half-maximal inhibition (IC50) in data set [1], in data set [2] and in data set [3] (setting [4]) were 7.15 µM, 9.41 µM and 23.6 µM, respectively.

`N#Cc1ccccc1CNc1cc(F)c(S(=O)(=O)Nc2nccs2)cc1Cl` [Example 17, 5-chloro-4-((2-cyanobenzyl)amino)-2-fluoro-N-(thiazol-2-yl)benzenesulfonamide]: the results for the IC50 in data set [1], in data set [2] and in data set [3] (setting [4]) were 0.308 µM, 0.494 µM and 8.46 µM, respectively.

On to `O=S(=O)(Nc1cscn1)c1cc(Cl)c(NC2(c3ccccc3)CCC2)cc1F` [Example 18, 5-chloro-2-fluoro-4-((1-phenylcyclobutyl)amino)-N-(thiazol-4-yl)benzenesulfonamide], for which the figures for the IC50 in data set [1], in data set [2] and in data set [3] (setting [4]) were 3.35 µM, 8.37 µM and 11.9 µM, respectively.

For the compound `C[C@H](Nc1c(Cl)cc(S(=O)(=O)Nc2nccs2)cc1Cl)c1ccccc1F` [Example 21, (S)-3,5-dichloro-4-((1-(2-fluorophenyl)ethyl)amino)-N-(thiazol-2-yl)benzenesulfonamide], the IC50 in data set [1] was 3.67 µM; in data set [2], 3.63 µM; in data set [3] (setting [4]), 2.89 µM.

For `C[C@H](Nc1cc(F)c(S(=O)(=O)Nc2cccc(F)n2)cc1Cl)c1ccccc1Cl` [Example 23, (S)-5-chloro-4-((1-(2-chlorophenyl)ethyl)amino)-2-fluoro-N-(6-fluoropyridin-2-yl)benzenesulfonamide], the half-maximal inhibitory concentration (IC50) in data set [1] was found to be 1.52 µM; in data set [2], 5.4 µM; in data set [3] (setting [4]), 4.09 µM.

As for `C[C@H](Nc1ccc(S(=O)(=O)Nc2cscn2)cc1Cl)c1ccccc1` [Example 24, (S)-3-chloro-4-((1-phenylethyl)amino)-N-(thiazol-4-yl)benzenesulfonamide], the IC50 in data set [1] turned out to be 4.09 µM; in data set [2], 5.85 µM; in data set [3] (setting [4]) it was 8.32 µM.

As to `O=S(=O)(Nc1cscn1)c1cc(Cl)c(OC2CCc3c2cccc3C(F)(F)F)cc1F` (stereo not drawn) [Example 29, 5-chloro-2-fluoro-N-(thiazol-4-yl)-4-((4-(trifluoromethyl)-2,3-dihydro-1H-inden-1-yl)oxy)benzenesulfonamide], the concentration for half-maximal inhibition (IC50) is 30 µM in data set [1], 30 µM in data set [2] and 24.6 µM in data set [3] (setting [4]).

As for `O=S(=O)(Nc1ncns1)c1ccc(NCc2ccccc2)c(Cl)c1` [Example 33, 4-(Benzylamino)-3-chloro-N-(1,2,4-thiadiazol-5-yl)benzenesulfonamide], the concentration for half-maximal inhibition (IC50) in data set [1] is 0.462 µM; in data set [2], 2.99 µM; in data set [3] (setting [4]) it was 25.8 µM.

As for `CC(CNc1ccc(S(=O)(=O)Nc2ncns2)cc1Cl)c1ccccc1` (stereo not drawn) [Example 34, 3-chloro-4-((2-phenylpropyl)amino)-N-(1,2,4-thiadiazol-5-yl)benzenesulfonamide], the IC50 in data set [1] came to 1.27 µM; in data set [2], 0.84 µM; in data set [3] (setting [4]), 4.91 µM.

`O=S(=O)(Nc1ncns1)c1ccc(N[C@@H]2CCc3ccccc32)c(Cl)c1` [Example 35, (R)-3-chloro-4-((2,3-dihydro-1H-inden-1-yl)amino)-N-(1,2,4-thiadiazol-5-yl)benzenesulfonamide]: the half-inhibitory concentration (IC50) in data set [1] is 0.839 µM; in data set [2], 0.301 µM; in data set [3] (setting [4]), 8.69 µM.

On to `O=S(=O)(Nc1ncns1)c1ccc(N[C@H]2CCc3ccccc32)c(Cl)c1` [Example 36, (S)-3-chloro-4-((2,3-dihydro-1H-inden-1-yl)amino)-N-(1,2,4-thiadiazol-5-yl)benzenesulfonamide], for which the figures for the IC50 in data set [1], in data set [2] and in data set [3] (setting [4]) were 1.4 µM, 1.34 µM and 5.12 µM, respectively.

As to `O=S(=O)(Nc1nccs1)c1cc(Cl)c(N[C@H]2CCCc3ccccc32)cc1F` [Example 46, (S)-5-chloro-2-fluoro-4-((1,2,3,4-tetrahydronaphthalen-1-yl)amino)-N-(thiazol-2-yl)benzenesulfonamide], the figures for the IC50 in data set [1], in data set [2] and in data set [3] (setting [4]) were 1.66 µM, 0.999 µM and 7.04 µM, respectively.

As to `C[C@H](Nc1cc(F)c(S(=O)(=O)Nc2nccs2)cc1Cl)c1cccc(Cl)c1` [Example 50, (S)-5-chloro-4-((1-(3-chlorophenyl)ethyl)amino)-2-fluoro-N-(thiazol-2-yl)benzenesulfonamide], the concentration for half-maximal inhibition (IC50) was 0.169 µM in data set [1], 1.28 µM in data set [2] and 6.07 µM in data set [3] (setting [4]).

With `C[C@H](Nc1cc(F)c(S(=O)(=O)Nc2nccs2)cc1Cl)c1cc(Cl)cc(Cl)c1` [Example 51, (S)-5-chloro-4-((1-(3,5-dichlorophenyl)ethyl)amino)-2-fluoro-N-(thiazol-2-yl)benzenesulfonamide], the IC50 in data set [1] was found to be 10.8 µM; in data set [2], 4.27 µM; in data set [3] (setting [4]) it was 20.6 µM.

In the case of `O=S(=O)(Nc1cscn1)c1c(F)cc(NCc2c(F)cccc2CN2CC3(COC3)C2)cc1F` [Example 153, 4-((2-((2-oxa-6-azaspiro[3.3]heptan-6-yl)methyl)-6-fluorobenzyl)amino)-2,6-difluoro-N-(thiazol-4-yl)benzenesulfonamide formate], in data set [3] (setting [4]), the IC50 was found to be 30 µM.

Consider `O=S(=O)(Nc1cscn1)c1c(F)cc(NCc2c(F)cccc2CN2CCCC2)cc1F` [Example 166, 2,6-difluoro-4-((2-fluoro-6-(pyrrolidin-1-ylmethyl)benzyl)amino)-N-(thiazol-4-yl)benzenesulfonamide formate], for which, in data set [3] (setting [4]), the IC50 was determined as 15.2 µM.

Regarding `COC1CN(Cc2cccc(F)c2CNc2cc(F)c(S(=O)(=O)Nc3cscn3)c(F)c2)C1` [Example 171, 2,6-difluoro-4-((2-fluoro-6-((3-methoxyazetidin-1-yl)methyl)benzyl)amino)-N-(thiazol-4-yl)benzenesulfonamide formate], the IC50 in data set [3] (setting [4]) came out at 16.8 µM.

For `COc1ccc(F)c([C@H](C)Nc2cc(F)c(S(=O)(=O)Nc3cscn3)c(F)c2)c1` [Example 238, (S)-2,6-difluoro-4-((1-(2-fluoro-5-methoxyphenyl)ethyl)amino)-N-(thiazol-4-yl)benzenesulfonamide], in data set [2], the IC50 is 6.45 µM.

For the compound `C[C@H](Nc1ccc(S(=O)(=O)Nc2cscn2)cc1C(F)(F)F)c1cc(F)ccc1F` [Example 274, (S)-4-((1-(2,5-difluorophenyl)ethyl)amino)-N-(thiazol-4-yl)-3-(trifluoromethyl)benzenesulfonamide], the IC50 in data set [3] (setting [4]) was found to be 4.6 µM.

`CCc1cc(S(=O)(=O)Nc2cscn2)c(F)cc1N[C@@H](C)c1cc(F)ccc1F` [Example 297, (S)-4-((1-(2,5-difluorophenyl)ethyl)amino)-5-ethyl-2-fluoro-N-(thiazol-4-yl)benzenesulfonamide]: in data set [3] (setting [4]), the IC50 is 8.63 µM.
